Assay results as given in patent US20080146617A1, “Methods of treating inflammatory diseases” (Roche Palo Alto LLC, priority 2006, published 2008).
Like-named read-outs stand apart in the source and are kept apart here.

What was measured:
Experiment in all cases: KinomeScan kinase profiling
Format in all cases: binding
[1] = target: T1, CAMKK2 (Homo sapiens, UniProt Q96RR4)
T1 construct: purchased Ambit Biosciences (San Diego, Calif.)
From the text: (§1) The selectivity of a given CK1δ, CK1ε or CK1δ-CK1ε inhibitor compound can be determined by testing the compound against a panel of known kinases. An example of such a kinase profiling technology is the “KinomeScan” from Ambit Biosciences in which compounds can be screened for their modulatory activities against more than 200 known kinases.

[2] = target: T2, CSNK1G2 (Homo sapiens, UniProt P78368)
T2 construct: purchased Ambit Biosciences (San Diego, Calif.)
From the text: as §1

[3] = target: T3, AKT1 (Homo sapiens, UniProt P31749)
T3 construct: purchased Ambit Biosciences (San Diego, Calif.)
From the text: as §1

[4] = target: T4, FLT4 (Homo sapiens, UniProt P35916)
T4 construct: purchased Ambit Biosciences (San Diego, Calif.)
From the text: as §1

[5] = target: T5, PHKG2 (Homo sapiens, UniProt P15735)
T5 construct: purchased Ambit Biosciences (San Diego, Calif.)
T5 sequence (P15735 whole entry): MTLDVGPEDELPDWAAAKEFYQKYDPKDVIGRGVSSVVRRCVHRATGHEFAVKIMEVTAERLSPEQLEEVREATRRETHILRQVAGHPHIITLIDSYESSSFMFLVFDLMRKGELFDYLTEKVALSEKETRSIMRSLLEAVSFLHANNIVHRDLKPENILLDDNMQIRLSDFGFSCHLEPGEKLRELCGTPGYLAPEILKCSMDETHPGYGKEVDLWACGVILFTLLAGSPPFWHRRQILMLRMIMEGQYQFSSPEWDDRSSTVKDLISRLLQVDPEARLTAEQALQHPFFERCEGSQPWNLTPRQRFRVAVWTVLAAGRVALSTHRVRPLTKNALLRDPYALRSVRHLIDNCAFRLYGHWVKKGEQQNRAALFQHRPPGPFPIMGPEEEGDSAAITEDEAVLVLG
From the text: as §1

[6] = target: T6, CSK (Homo sapiens, UniProt P41240)
T6 construct: purchased Ambit Biosciences (San Diego, Calif.)
From the text: as §1

[7] = target: T7, TTK (Homo sapiens, UniProt P33981)
T7 construct: purchased Ambit Biosciences
From the text: as §1

[8] = target: T8, RIPK2 (Homo sapiens, UniProt O43353)
T8 construct: purchased Ambit Biosciences
From the text: as §1

[9] = target: T9, ROS1 (Homo sapiens, UniProt P08922)
T9 construct: purchased Ambit Biosciences
From the text: as §1

[10] = target: T10, FES (Homo sapiens, UniProt P07332)
T10 construct: purchased Ambit Biosciences (San Diego, Calif.)
From the text: as §1

[11] = target: T11, AAK1 (Homo sapiens, UniProt Q2M2I8)
T11 construct: purchased Ambit Biosciences (San Diego, Calif.)
From the text: as §1

[12] = target: T12, JNK1 (Homo sapiens, UniProt P45983)
T12 construct: purchased Ambit Biosciences (San Diego, Calif.)
From the text: as §1

[13] = target: T13, p38-gamma (Homo sapiens, UniProt P53778)
T13 construct: purchased Ambit Biosciences (San Diego, Calif.)
From the text: as §1

[14] = target: T14, FGFR1 (Homo sapiens, UniProt P11362)
T14 construct: purchased Ambit Biosciences (San Diego, Calif.)
T14 sequence (P11362 22-822): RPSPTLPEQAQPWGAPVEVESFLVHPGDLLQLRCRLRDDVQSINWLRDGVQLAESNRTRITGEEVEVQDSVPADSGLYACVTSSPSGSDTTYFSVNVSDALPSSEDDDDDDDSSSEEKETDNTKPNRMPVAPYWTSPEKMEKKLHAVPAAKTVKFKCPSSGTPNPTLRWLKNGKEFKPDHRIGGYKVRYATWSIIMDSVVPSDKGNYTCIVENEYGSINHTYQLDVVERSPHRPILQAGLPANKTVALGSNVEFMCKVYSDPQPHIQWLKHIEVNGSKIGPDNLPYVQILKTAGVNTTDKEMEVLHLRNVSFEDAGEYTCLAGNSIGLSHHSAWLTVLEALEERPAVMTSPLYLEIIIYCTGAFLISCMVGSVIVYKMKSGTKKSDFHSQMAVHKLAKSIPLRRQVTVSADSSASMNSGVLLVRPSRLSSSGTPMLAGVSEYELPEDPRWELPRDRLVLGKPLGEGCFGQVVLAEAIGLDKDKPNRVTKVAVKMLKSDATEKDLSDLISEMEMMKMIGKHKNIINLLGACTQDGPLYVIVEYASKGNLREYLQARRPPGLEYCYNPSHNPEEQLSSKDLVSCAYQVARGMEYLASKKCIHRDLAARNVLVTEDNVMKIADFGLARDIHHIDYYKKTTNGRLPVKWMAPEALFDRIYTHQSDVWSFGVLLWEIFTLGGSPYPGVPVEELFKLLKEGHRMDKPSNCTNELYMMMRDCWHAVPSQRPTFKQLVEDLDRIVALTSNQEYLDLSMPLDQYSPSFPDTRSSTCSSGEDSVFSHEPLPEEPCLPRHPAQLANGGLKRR
From the text: as §1

[15] = target: T15, NEK9 (Homo sapiens, UniProt Q8TD19)
T15 construct: purchased Ambit Biosciences (San Diego, Calif.)
From the text: as §1

[16] = target: T16, STK36 (Homo sapiens, UniProt Q9NRP7)
T16 construct: purchased Ambit Biosciences
From the text: as §1

[17] = target: T17, CAMK1D (Homo sapiens, UniProt Q8IU85)
T17 construct: purchased Ambit Biosciences (San Diego, Calif.)
From the text: as §1

[18] = target: T18, BTK (Homo sapiens, UniProt Q06187)
T18 construct: purchased Ambit Biosciences (San Diego, Calif.)
From the text: as §1

[19] = target: T19, DMPK (Homo sapiens, UniProt Q09013)
T19 construct: purchased Ambit Biosciences (San Diego, Calif.)
From the text: as §1

[20] = target: T20, CLK1 (Homo sapiens, UniProt P49759)
T20 construct: purchased Ambit Biosciences (San Diego, Calif.)
From the text: as §1

[21] = target: T21, LYN (Homo sapiens, UniProt P07948)
T21 construct: purchased Ambit Biosciences (San Diego, Calif.)
From the text: as §1

[22] = target: T22, CLK3 (Homo sapiens, UniProt P49761)
T22 construct: purchased Ambit Biosciences (San Diego, Calif.)
T22 sequence (P49761 whole entry): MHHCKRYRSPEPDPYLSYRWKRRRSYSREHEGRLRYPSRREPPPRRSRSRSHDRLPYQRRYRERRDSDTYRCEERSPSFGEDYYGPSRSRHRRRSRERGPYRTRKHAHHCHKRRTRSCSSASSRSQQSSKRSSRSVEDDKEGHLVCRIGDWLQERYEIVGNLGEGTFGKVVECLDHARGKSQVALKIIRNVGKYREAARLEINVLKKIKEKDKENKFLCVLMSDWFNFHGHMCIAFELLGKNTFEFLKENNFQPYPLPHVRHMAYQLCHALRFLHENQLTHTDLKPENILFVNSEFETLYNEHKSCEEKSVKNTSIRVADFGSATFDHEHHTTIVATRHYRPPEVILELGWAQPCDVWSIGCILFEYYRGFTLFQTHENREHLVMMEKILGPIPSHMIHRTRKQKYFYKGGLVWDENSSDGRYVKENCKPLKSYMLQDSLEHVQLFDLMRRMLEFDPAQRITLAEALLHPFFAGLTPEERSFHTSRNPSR
From the text: as §1

[23] = target: T23, STK17A (Homo sapiens, UniProt Q9UEE5)
T23 construct: purchased Ambit Biosciences
From the text: as §1

[24] = target: T24, CSNK1G1 (Homo sapiens, UniProt Q9HCP0)
T24 construct: purchased Ambit Biosciences (San Diego, Calif.)
From the text: as §1

[25] = target: T25, TRKA (Homo sapiens, UniProt P04629)
T25 construct: purchased Ambit Biosciences
T25 sequence (P04629 33-796): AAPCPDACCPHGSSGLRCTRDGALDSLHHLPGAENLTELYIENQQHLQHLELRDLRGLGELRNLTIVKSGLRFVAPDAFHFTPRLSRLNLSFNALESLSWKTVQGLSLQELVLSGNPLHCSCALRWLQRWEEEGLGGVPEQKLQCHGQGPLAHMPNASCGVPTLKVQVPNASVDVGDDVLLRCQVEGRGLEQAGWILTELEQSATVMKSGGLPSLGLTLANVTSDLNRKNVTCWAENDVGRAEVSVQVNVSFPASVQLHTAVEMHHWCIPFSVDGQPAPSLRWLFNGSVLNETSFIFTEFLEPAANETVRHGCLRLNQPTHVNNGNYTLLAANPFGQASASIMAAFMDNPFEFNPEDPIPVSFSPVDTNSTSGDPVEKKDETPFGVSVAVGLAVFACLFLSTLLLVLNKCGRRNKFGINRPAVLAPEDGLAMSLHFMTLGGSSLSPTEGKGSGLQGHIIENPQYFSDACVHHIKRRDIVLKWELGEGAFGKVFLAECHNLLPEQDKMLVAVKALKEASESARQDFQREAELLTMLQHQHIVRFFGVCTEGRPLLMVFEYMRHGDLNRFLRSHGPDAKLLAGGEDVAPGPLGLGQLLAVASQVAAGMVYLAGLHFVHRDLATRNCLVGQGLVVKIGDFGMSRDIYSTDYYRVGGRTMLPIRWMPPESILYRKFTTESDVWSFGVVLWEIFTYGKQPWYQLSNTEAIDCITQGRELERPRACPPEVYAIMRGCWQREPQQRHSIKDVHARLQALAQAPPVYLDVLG
From the text: as §1

[26] = target: T26, FYN (Homo sapiens, UniProt P06241)
T26 construct: purchased Ambit Biosciences (San Diego, Calif.)
From the text: as §1

[27] = target: T27, CSNK2A1 (Homo sapiens, UniProt P68400)
T27 construct: purchased Ambit Biosciences (San Diego, Calif.)
T27 sequence (P68400 whole entry): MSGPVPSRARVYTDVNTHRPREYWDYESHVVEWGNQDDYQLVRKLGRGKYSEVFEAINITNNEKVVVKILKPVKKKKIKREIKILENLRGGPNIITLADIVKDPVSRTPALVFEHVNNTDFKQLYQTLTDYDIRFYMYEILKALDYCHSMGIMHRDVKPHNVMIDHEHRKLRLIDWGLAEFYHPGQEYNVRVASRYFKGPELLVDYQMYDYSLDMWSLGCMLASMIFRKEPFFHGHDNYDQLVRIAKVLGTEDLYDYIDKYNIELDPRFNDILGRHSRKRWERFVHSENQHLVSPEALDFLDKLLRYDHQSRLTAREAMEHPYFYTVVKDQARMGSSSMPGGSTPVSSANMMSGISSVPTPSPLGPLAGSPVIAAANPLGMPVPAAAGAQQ
From the text: as §1

[28] = target: T28, YES (Homo sapiens, UniProt P07947)
T28 construct: purchased Ambit Biosciences (San Diego, Calif.)
From the text: as §1

[29] = target: T29, ERK2 (Homo sapiens, UniProt P28482)
T29 construct: purchased Ambit Biosciences (San Diego, Calif.)
From the text: as §1

[30] = target: T30, PDGFRB (Homo sapiens, UniProt P09619)
T30 construct: purchased Ambit Biosciences (San Diego, Calif.)
From the text: as §1

[31] = target: T31, EPHB1 (Homo sapiens, UniProt P54762)
T31 construct: purchased Ambit Biosciences (San Diego, Calif.)
From the text: as §1

[32] = target: T32, CAMK2B (Homo sapiens, UniProt Q13554)
T32 construct: purchased Ambit Biosciences (San Diego, Calif.)
From the text: as §1

[33] = target: T33, STK11 (Homo sapiens, UniProt Q15831)
T33 construct: purchased Ambit Biosciences
From the text: as §1

[34] = target: T34, SLK (Homo sapiens, UniProt Q9H2G2)
T34 construct: purchased Ambit Biosciences
From the text: as §1

[35] = target: T35, CAMK2D (Homo sapiens, UniProt Q13557)
T35 construct: purchased Ambit Biosciences (San Diego, Calif.)
T35 sequence (Q13557 whole entry): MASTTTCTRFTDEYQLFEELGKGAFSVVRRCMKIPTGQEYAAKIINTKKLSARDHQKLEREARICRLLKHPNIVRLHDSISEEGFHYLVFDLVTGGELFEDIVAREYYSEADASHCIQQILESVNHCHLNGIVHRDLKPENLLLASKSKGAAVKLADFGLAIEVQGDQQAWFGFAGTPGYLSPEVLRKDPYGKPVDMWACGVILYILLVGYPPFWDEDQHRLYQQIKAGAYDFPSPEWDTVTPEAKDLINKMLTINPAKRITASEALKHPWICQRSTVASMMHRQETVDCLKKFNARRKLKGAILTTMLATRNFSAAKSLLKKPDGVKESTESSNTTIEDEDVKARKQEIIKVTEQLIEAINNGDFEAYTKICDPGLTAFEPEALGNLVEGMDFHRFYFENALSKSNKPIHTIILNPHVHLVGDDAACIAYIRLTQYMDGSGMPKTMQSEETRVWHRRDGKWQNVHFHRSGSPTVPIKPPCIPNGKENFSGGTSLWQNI
From the text: as §1

[36] = target: T36, FLT3 (Homo sapiens, UniProt P36888)
T36 construct: purchased Ambit Biosciences (San Diego, Calif.)
From the text: as §1

[37] = target: T37, FER (Homo sapiens, UniProt P16591)
T37 construct: purchased Ambit Biosciences (San Diego, Calif.)
T37 sequence (P16591 whole entry): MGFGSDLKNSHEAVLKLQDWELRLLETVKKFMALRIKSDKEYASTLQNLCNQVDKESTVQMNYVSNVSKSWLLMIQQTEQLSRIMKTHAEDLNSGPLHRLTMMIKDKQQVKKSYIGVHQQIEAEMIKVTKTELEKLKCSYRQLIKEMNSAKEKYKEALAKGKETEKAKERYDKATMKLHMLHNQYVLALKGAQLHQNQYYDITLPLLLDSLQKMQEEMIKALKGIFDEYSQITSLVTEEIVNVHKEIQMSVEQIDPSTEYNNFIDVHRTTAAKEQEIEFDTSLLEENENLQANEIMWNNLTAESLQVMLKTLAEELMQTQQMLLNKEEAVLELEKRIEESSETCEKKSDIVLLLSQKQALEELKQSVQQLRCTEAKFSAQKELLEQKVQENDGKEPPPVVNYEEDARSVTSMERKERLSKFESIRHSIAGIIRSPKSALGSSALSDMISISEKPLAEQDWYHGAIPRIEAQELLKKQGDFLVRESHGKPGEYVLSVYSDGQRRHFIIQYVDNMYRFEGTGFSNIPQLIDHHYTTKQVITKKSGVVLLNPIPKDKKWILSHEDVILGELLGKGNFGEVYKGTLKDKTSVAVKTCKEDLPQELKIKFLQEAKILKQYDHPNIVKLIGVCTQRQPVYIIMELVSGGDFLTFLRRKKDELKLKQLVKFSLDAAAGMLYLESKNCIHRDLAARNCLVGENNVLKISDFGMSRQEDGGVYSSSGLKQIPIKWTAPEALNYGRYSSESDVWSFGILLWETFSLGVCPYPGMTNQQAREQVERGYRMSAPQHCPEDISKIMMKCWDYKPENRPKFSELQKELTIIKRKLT
From the text: as §1

[38] = target: T38, CAMK2A (Homo sapiens, UniProt Q9UQM7)
T38 construct: purchased Ambit Biosciences (San Diego, Calif.)
From the text: as §1

[39] = target: T39, PTK2B (Homo sapiens, UniProt Q14289)
T39 construct: purchased Ambit Biosciences
From the text: as §1

[40] = target: T40, IGF1R (Homo sapiens, UniProt P08069)
T40 construct: purchased Ambit Biosciences (San Diego, Calif.)
From the text: as §1

Measured: inhibition at 10 µM

T1 sequence (Q96RR4 whole entry): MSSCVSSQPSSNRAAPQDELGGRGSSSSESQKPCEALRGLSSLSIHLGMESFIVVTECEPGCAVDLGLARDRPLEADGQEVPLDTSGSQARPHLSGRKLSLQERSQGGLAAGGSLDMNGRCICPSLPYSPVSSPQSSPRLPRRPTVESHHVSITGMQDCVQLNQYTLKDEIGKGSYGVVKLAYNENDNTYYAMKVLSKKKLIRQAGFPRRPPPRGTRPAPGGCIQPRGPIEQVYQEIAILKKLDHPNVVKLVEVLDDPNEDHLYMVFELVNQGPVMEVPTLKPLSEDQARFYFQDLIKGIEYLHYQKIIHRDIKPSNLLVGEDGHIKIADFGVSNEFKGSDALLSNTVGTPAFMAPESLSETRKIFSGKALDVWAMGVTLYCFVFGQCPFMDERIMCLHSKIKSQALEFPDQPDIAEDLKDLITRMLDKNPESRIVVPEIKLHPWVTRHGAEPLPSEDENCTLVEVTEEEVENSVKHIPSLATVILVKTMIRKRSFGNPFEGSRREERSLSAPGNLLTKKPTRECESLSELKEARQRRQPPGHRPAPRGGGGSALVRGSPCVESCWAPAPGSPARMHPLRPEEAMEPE

NC(=O)c1ccc(-c2nc(-c3ccc4c(c3)OCCO4)c(-c3ccccn3)[nH]2)cc1 [D4476, 4-[4-(2,3-Dihydro-benzo[1,4]dioxin-6-yl)-5-pyridin-2-yl-1H-imidazol-2-yl]benzamide]
< 50%: [1] | [2] | [3] | [4] | [5] | [6] | [7] | [8] | [9] | [10] | [11] | [12] | [13] | [14] | [15] | [16] | [17] | [18] | [19] | [20] | [21] | [22] | [23] | [24] | [25] | [26] | [27] | [28] | [29] | [30] | [31] | [32] | [33] | [34] | [35] | [36] | [37] | [38] | [39] | [40]

NC(=O)c1ccc(-c2nc(-c3ccc4c(c3)OCO4)c(-c3ccccn3)[nH]2)cc1 [SB431542, 4-(4-benzo-[1,3]dioxol-5-yl-5-pyridin-2-yl-1H-imidazol-2-yl)benzamide]
< 50%: [1] | [2]; 10 μM, CSNK1G2, read-out: % Inhibition | [3] | [4] | [5] | [6] | [7] | [8] | [9] | [10] | [11] | [12] | [13] | [14] | [15] | [16] | [17] | [18] | [19] | [20] | [21] | [22] | [23] | [24]; 10 μM, CSNK1G1, read-out: % Inhibition | [25] | [26] | [27] | [28] | [29] | [30] | [31] | [32] | [33] | [34] | [35] | [36] | [37] | [38] | [39] | [40]
